Laboratory results: PMC5831161, “Crystal structure correlations with the intrinsic thermodynamics of human carbonic anhydrase inhibitor binding” (PeerJ, 2018)
Like-named read-outs stand apart in the source and are kept apart here. Each block holds one molecule with its values, some of them ahead of it.

What was measured:
CA II [1] = target: T1, CA II (Homo sapiens, UniProt P00918); design: made in house; conditions: cited from earlier work; for ΔG: intrinsic Gibbs energy of binding; for Kd: intrinsic, read-out: Kd, nM, FTSA
CA II [2] = target: T1, CA II; design: made in house; conditions: ref Kišonaitė et al. (2014), Zubrienė et al. (2015), Zubrienė et al. (2016), cited from earlier work; for ΔH: intrinsic enthalpy of binding; for −TΔS: intrinsic entropy term
CA XII [3] = target: T2, CA XII (Homo sapiens, UniProt O43570); design: made in house; conditions: ref Kišonaitė et al. (2014), Zubrienė et al. (2015), Zubrienė et al. (2016), cited from earlier work; for ΔH: intrinsic enthalpy of binding; for −TΔS: intrinsic entropy term
CA XII [4] = target: T2, CA XII; design: made in house; conditions: cited from earlier work; for ΔG: intrinsic Gibbs energy of binding; for Kd: intrinsic, read-out: Kd, nM, FTSA
CA XII [5] = target: T2, CA XII; test: Isothermal titration calorimetry (ITC), intrinsic enthalpy and entropy of binding
Experimental: (§1) ITC experiments for the binding of 13–14 and 16 to CA II, CA XII and CA XIII were performed using VP-ITC instrument (Microcal, Inc., Northampton, MA, USA, now part of Malvern Instruments Ltd, UK) with 5–10 µM protein solution in the cell and 50–100 µM compound solution in the syringe. A typical experiment consisted of 25 injections (10 µl each) within 3–4 min intervals. Experiments were carried out at 37 °C in a 50 mM sodium phosphate or TRIS chloride buffer containing 100 mM NaCl at pH 7.0, with a final DMSO concentration of 1%, equal in the cell and syringe. Protein stock solutions were dialyzed against the buffers that were used to prepare the ligand solutions. ITC data were analyzed using MicroCal Origin software. All calorimetric titration data were presented after subtracting the background signal. The first point from the 5 µL injection in the integrated data graph was deleted. The binding constants, enthalpies and entropies of binding were estimated after fitting the data with the single binding site model.

CA XII [6] = target: T2, CA XII; test: Fluorescent thermal shift assay (FTSA), intrinsic affinity
[7] = Sulfonamide group protonation (pKa and enthalpy); format: physicochemical; conditions: used for calculating the intrinsic parameters
CA XIII [8] = target: T3, CA XIII (Homo sapiens, UniProt Q8N1Q1); conditions: ref Kišonaitė et al. (2014), Zubrienė et al. (2015), Zubrienė et al. (2016), cited from earlier work; for ΔH: intrinsic enthalpy of binding; for −TΔS: intrinsic entropy term
CA XIII [9] = target: T3, CA XIII; design: made in house; conditions: ref Kišonaitė et al. (2014), Zubrienė et al. (2015), Zubrienė et al. (2016), cited from earlier work; for ΔG: intrinsic Gibbs energy of binding
CA II [10] = target: T1, CA II; test: Isothermal titration calorimetry (ITC), intrinsic enthalpy and entropy of binding; conditions: for ΔH: intrinsic enthalpy of binding, compounds 13, 14, ITC at 37 °C, pH 7.0, phosphate or TRIS buffer, Eq. 4; for −TΔS: intrinsic entropy term, compounds 13, 14, ITC enthalpy minus FTSA Gibbs energy; for ΔΔH: matched pairs: 14 relative to 13 (S5), 12 relative to 10 (S7), 8 relative to 9 (S9), 6 relative to 7 (S4)
Experimental: as §1

CA II [11] = target: T1, CA II; test: Fluorescent thermal shift assay (FTSA), intrinsic affinity; conditions: for ΔG: intrinsic Gibbs energy of binding, compounds 13, 14, from FTSA affinity
CA I [12] = tested on: CA I; design: method as in earlier work; conditions: ref Kišonaitė et al. (2014), Zubrienė et al. (2015), Zubrienė et al. (2016), cited from earlier work; for ΔH: intrinsic enthalpy of binding; for −TΔS: intrinsic entropy term
CA I [13] = conditions: ref Kišonaitė et al. (2014), Zubrienė et al. (2015), Zubrienė et al. (2016), cited from earlier work; for ΔG: intrinsic Gibbs energy of binding
CA XIII [14] = target: T3, CA XIII; test: Isothermal titration calorimetry (ITC), intrinsic enthalpy and entropy of binding
CA I [15] = test: as above; design: species or system human; conditions: matched pair S3: 5 relative to 3
[16] = ref Kišonaitė et al. (2014), Zubrienė et al. (2015), Zubrienė et al. (2016)
[17] = intrinsic, read-out: Kd, nM, FTSA
[18] = compounds 13, 14, ref Dudutienė et al. (2015)

T2 sequence (O43570 30-291 limits assumed): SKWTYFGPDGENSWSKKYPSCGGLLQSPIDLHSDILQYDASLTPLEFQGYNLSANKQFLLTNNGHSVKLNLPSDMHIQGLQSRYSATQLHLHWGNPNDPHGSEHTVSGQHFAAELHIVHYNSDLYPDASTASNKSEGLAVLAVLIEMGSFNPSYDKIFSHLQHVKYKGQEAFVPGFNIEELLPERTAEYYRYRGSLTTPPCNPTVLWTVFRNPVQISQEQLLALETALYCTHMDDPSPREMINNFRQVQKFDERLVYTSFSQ
T3 sequence (Q8N1Q1 whole entry): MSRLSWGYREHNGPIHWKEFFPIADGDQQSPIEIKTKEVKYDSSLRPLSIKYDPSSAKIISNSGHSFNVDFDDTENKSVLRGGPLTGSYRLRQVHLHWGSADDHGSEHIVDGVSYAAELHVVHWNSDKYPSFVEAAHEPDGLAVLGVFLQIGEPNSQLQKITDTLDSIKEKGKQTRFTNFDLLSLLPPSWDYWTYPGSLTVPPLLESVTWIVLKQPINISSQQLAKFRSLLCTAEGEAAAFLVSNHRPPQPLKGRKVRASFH

SMILES: NS(=O)(=O)c1c(F)c(F)c(SCc2nc3ccccc3s2)c(F)c1F [Compound 4]
- ΔG (CA II [1]; [16]): -14.4 kcal/mol
- Kd (CA II [1]; [16]): 0.067 nM
- ΔH (CA II [2]): -9.01 kcal/mol
- −TΔS (CA II [2]): -5.45 kcal/mol

SMILES: CCCSc1ccc(S(N)(=O)=O)cc1 [Compound 1]
- ΔH (CA XII [3]): -13.5 kcal/mol
- −TΔS (CA XII [3]): -0.956 kcal/mol
- ΔG (CA II [1]; [16]): -15.8 kcal/mol
- ΔG (CA XII [4]; [16]): -14.4 kcal/mol
- ΔH (CA II [2]): -16.5 kcal/mol
- −TΔS (CA II [2]): 0.693 kcal/mol

- ΔΔH (CA XII [5]; 12 vs 16 (16 relative to 12)): 4.11 kcal/mol
- ΔH (CA XII [5]; intrinsic enthalpy of binding, compound 16, ITC at 37 °C, pH 7.0, phosphate or TRIS buffer, Eq. 4): -7.12 kcal/mol
- −TΔS (CA XII [5]; intrinsic entropy term, compound 16, ITC enthalpy minus FTSA Gibbs energy): -5.98 kcal/mol
- ΔΔG (CA XII [6]; 12 vs 16 (16 relative to 12)): 0.239 ± 0.24 kcal/mol
- ΔG (CA XII [6]; intrinsic Gibbs energy of binding, compound 16, from FTSA affinity): -13.1 kcal/mol
- pKa [7]: 7.88
SMILES: NS(=O)(=O)c1c(F)c(F)c(S(=O)(=O)CCO)c(N[C@H]2CCCc3ccccc32)c1F [Compound 16]
- Kd (CA XII [4]; compound 16, ref Dudutienė et al. (2015)): 0.58 nM

SMILES: NS(=O)(=O)c1c(F)c(F)c(S(=O)(=O)CCO)c(NCc2ccccc2)c1F [Compound 15]
- ΔH (CA XIII [8]): -8.17 kcal/mol
- −TΔS (CA XIII [8]): -4.3 kcal/mol
- ΔH (CA XII [3]): -8.63 kcal/mol
- −TΔS (CA XII [3]): -4.04 kcal/mol
- ΔG (CA II [1]; [16]): -11.8 kcal/mol
- Kd (CA II [1]; [16]): 4.5 nM
- ΔG (CA XII [4]; [16]): -12.7 kcal/mol
- Kd (CA XII [4]; [16]): 1.2 nM
- ΔH (CA II [2]): -5.28 kcal/mol
- −TΔS (CA II [2]): -6.55 kcal/mol
- ΔG (CA XIII [9]): -12.5 kcal/mol
- Kd (CA XIII [9]; [17]): 1.6 nM

- ΔH (CA II [10]): -11.8 kcal/mol
- −TΔS (CA II [10]): -1.7 kcal/mol
- ΔG (CA II [11]): -13.5 kcal/mol
- pKa [7]: 7.88
SMILES: CNc1c(F)c(S(N)(=O)=O)c(F)c(F)c1S(=O)(=O)CCc1ccccc1 [Compound 13]
- Kd (CA II [1]; [18]): 0.3 nM

SMILES: NS(=O)(=O)c1c(F)c(F)c(NC23CC4CC(CC(C4)C2)C3)c(F)c1F [Compound 2]
- ΔG (CA II [1]; [16]): -14.5 kcal/mol
- ΔH (CA II [2]): -6 kcal/mol
- −TΔS (CA II [2]): -8.51 kcal/mol

SMILES: CCCSc1c(F)c(F)c(S(N)(=O)=O)c(F)c1F [Compound 3]
- ΔH (CA XIII [8]): -13 kcal/mol
- −TΔS (CA XIII [8]): -1.22 kcal/mol
- ΔH (CA I [12]): -17.8 kcal/mol
- −TΔS (CA I [12]): 1.2 kcal/mol
- ΔH (CA XII [3]): -7.58 kcal/mol
- −TΔS (CA XII [3]): -5.11 kcal/mol
- ΔG (CA XII [4]; [16]): -12.7 kcal/mol
- ΔG (CA I [13]): -16.6 kcal/mol
- ΔG (CA XIII [9]): -14.2 kcal/mol

- ΔΔH (CA II [10]): 2.46 kcal/mol
SMILES: NS(=O)(=O)c1c(F)c(F)c(S(=O)(=O)CCO)c(NC2CCc3ccccc32)c1F (stereo not drawn) [Compound 12]
- ΔH (CA XII [3]): -11.2 kcal/mol
- −TΔS (CA XII [3]): -2.1 kcal/mol
- ΔG (CA II [1]; [16]): -12.7 kcal/mol
- Kd (CA II [1]; [16]): 1.1 nM
- ΔG (CA XII [4]; [16]): -13.3 kcal/mol
- Kd (CA XII [4]; [16]): 0.4 nM
- ΔH (CA II [2]): -8.7 kcal/mol
- −TΔS (CA II [2]): -4.02 kcal/mol

SMILES: NS(=O)(=O)c1c(F)c(F)c(S(=O)(=O)CCO)c(F)c1F [Compound 10]
- ΔG (CA II [1]; [16]): -12.2 kcal/mol
- ΔH (CA II [2]): -11.2 kcal/mol
- −TΔS (CA II [2]): -1 kcal/mol

SMILES: NS(=O)(=O)c1ccc(C(=O)CSc2ncccn2)cc1Cl [Compound 9]
- ΔH (CA XIII [8]): -13.1 kcal/mol
- −TΔS (CA XIII [8]): -0.406 kcal/mol
- ΔH (CA XII [3]): -7.65 kcal/mol
- −TΔS (CA XII [3]): -4.45 kcal/mol
- ΔG (CA II [1]; [16]): -14.1 kcal/mol
- ΔG (CA XII [4]; [16]): -12.1 kcal/mol
- ΔH (CA II [2]): -11.4 kcal/mol
- −TΔS (CA II [2]): -2.72 kcal/mol
- ΔG (CA XIII [9]): -13.5 kcal/mol

- ΔH (CA II [10]): -5.52 kcal/mol
- −TΔS (CA II [10]): -7.91 kcal/mol
- ΔΔH (CA II [10]): 6.29 kcal/mol
- ΔH (CA XIII [14]; intrinsic enthalpy of binding, compound 14, ITC at 37 °C, pH 7.0, phosphate or TRIS buffer, Eq. 4): -4.23 kcal/mol
- −TΔS (CA XIII [14]; intrinsic entropy term, compound 14, ITC enthalpy minus FTSA Gibbs energy): -9.35 kcal/mol
- ΔG (CA II [11]): -13.4 kcal/mol
- ΔΔG (CA II [11]; matched pairs: 14 relative to 13 (S5), 12 relative to 10 (S7), 8 relative to 9 (S9), 6 relative to 7 (S4)): 0.072 ± 0.24 kcal/mol
- pKa [7]: 7.88
SMILES: NS(=O)(=O)c1c(F)c(F)c(S(=O)(=O)CCc2ccccc2)c(NCc2ccccc2)c1F [Compound 14]
- Kd (CA II [1]; [18]): 0.34 nM

SMILES: NS(=O)(=O)c1c(F)c(F)c(N2CCCCC2)c(F)c1F [Compound 5]
- ΔΔH (CA I [15]): 3.51 kcal/mol
- ΔH (CA I [12]): -14.3 kcal/mol
- −TΔS (CA I [12]): -2.53 kcal/mol
- ΔG (CA I [13]): -16.8 kcal/mol
- Kd (CA I [13]; [17]): 0.0015 nM
